Experimental data: the supplement of paper PMC10307832

Tests used:
Assay in all cases: relative viability (nuclei count vs DMSO), 5 days (fraction); higher = more cells survive
[1] = compound: CC[C@@H]1C(=O)N(C)c2cnc(Nc3ccc(C(=O)NC4CCN(C)CC4)cc3OC)nc2N1C1CCCC1 [BI-2536] + CC(=O)Nc1cccc(-n2c(=O)n(C3CC3)c(=O)c3c(Nc4ccc(I)cc4F)n(C)c(=O)c(C)c32)c1 [Trametinib] (partner 0.02 µM)
In short: (§1)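 Nuclei were stained with Hoechst during a one-step fixation (final 0.05% Triton X-100, 1% formaldehyde, 1 ug/ml Hoechst) carried out 5 days after dosing, then counted on 4× images. The cells, lung cancer lines in 1536-well plates, had been dosed by pin tool the day after seeding with one drug alone or a fixed anchor-drug dose plus five library-drug doses (not always all listed) in √10 steps. Relative viability is the nuclei count in treated wells divided by that in vehicle wells, and each value is the median of duplicate plates.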

[2] = compound: CC1CC(=O)N(C2=CN=C(N=C2N1C3CCCC3)NC4=C(C=C(C=C4)C(=O)NC5CCN(CC5)C)OC)C [NPK76-II-72-1] + Nc1nc2[nH]cc(CCc3ccc(C(=O)N[C@@H](CCC(=O)O)C(=O)O)cc3)c2c(=O)[nH]1 [Pemetrexed] (partner 0.2 µM)
In short: as §1

[3] = compound: CC[C@@H]1C(=O)N(C)c2cnc(Nc3ccc(C(=O)NC4CCN(C)CC4)cc3OC)nc2N1C1CCCC1 [BI-2536] + Nc1nc2[nH]cc(CCc3ccc(C(=O)N[C@@H](CCC(=O)O)C(=O)O)cc3)c2c(=O)[nH]1 [Pemetrexed] (partner 0.2 µM)
In short: as §1

[4] = compound: CC[C@@H]1C(=O)N(C)c2cnc(Nc3ccc(C(=O)NC4CCN(C)CC4)cc3OC)nc2N1C1CCCC1 [BI-2536] + COc1cc2c(Oc3ccc(NC(=O)C4(C(=O)Nc5ccc(F)cc5)CC4)cc3F)ccnc2cc1OCCCN1CCOCC1 [Foretinib] (partner 0.25 µM)
In short: as §1

Cell Line | relative viability ([1]; first compound 0.01 µM) | relative viability ([1]; first compound 0.03162 µM) | relative viability ([1]; first compound 0.1 µM) | relative viability ([1]; first compound 0.3162 µM) | relative viability ([1]; first compound 1 µM) | relative viability ([2]; first compound 0.01 µM) | relative viability ([2]; first compound 0.03162 µM) | relative viability ([2]; first compound 0.1 µM) | relative viability ([2]; first compound 0.3162 µM) | relative viability ([2]; first compound 1 µM) | relative viability ([3]; first compound 0.01 µM) | relative viability ([3]; first compound 0.03162 µM) | relative viability ([3]; first compound 0.1 µM) | relative viability ([3]; first compound 0.3162 µM) | relative viability ([3]; first compound 1 µM) | relative viability ([4]; first compound 0.01 µM) | relative viability ([4]; first compound 0.03162 µM) | relative viability ([4]; first compound 0.1 µM) | relative viability ([4]; first compound 0.3162 µM) | relative viability ([4]; first compound 1 µM)
201T | 0.717 | 0.741 | 0.745 | 0.253 | 0.252 | 0.344 | 0.319 | 0.338 | 0.324 | 0.333 | 0.362 | 0.302 | 0.298 | 0.208 | 0.224 | 1.1 | 0.896 | 0.612 | 0.184 | 0.212
NCI-H596 | 0.758 | 0.798 | 0.721 | 0.414 | 0.256 | 0.522 | 0.503 | 0.485 | 0.482 | 0.462 | 0.528 | 0.491 | 0.487 | 0.277 | 0.29 | 0.642 | 0.955 | 0.803 | 0.292 | 0.205
H3255 | 0.571 | 0.582 | 0.294 | 0.281 | 0.424 | 0.565 | 0.517 | 0.604 | 0.446 | 0.602 | 0.543 | 0.528 | 0.492 | 0.248 | 0.268 | 0.769 | 1.03 | 0.49 | 0.261 | 0.218
NCI-H647 | 0.482 | 0.458 | 0.213 | 0.087 | 0.0808 | 0.189 | 0.174 | 0.171 | 0.172 | 0.198 | 0.179 | 0.148 | 0.113 | 0.0907 | 0.0929 | 1.35 | 1.16 | 0.649 | 0.101 | 0.128
NCI-H2023 | 0.53 | 0.528 | 0.25 | 0.113 | 0.102 | 0.229 | 0.228 | 0.236 | 0.253 | 0.268 | 0.225 | 0.197 | 0.124 | 0.0926 | 0.0873 | 0.864 | 0.914 | 0.671 | 0.0855 | 0.0903
NCI-H23 | 0.372 | 0.464 | 0.201 | 0.112 | 0.14 | 0.52 | 0.915 | 0.597 | 0.71 | 0.777 | 0.619 | 0.756 | 0.201 | 0.128 | 0.182 | 0.954 | 0.813 | 0.229 | 0.153 | 0.162
NCI-H1944 | 0.392 | 0.427 | 0.439 | 0.144 | 0.186 | 0.564 | 0.665 | 0.664 | 0.571 | 0.734 | 0.631 | 0.649 | 0.425 | 0.18 | 0.142 | 0.822 | 1.09 | 0.907 | 0.134 | 0.178
NCI-H1793 | 0.37 | 0.435 | 0.251 | 0.177 | 0.183 |  | 1.05 | 0.92 | 0.806 | 0.981 | 0.876 | 1.04 | 0.197 | 0.171 | 0.175 | 0.585 | 0.364 | 0.202 | 0.164 | 0.173
NCI-H520 | 0.712 | 0.503 | 0.352 | 0.187 | 0.164 | 0.575 | 0.741 | 0.427 | 0.65 | 0.825 | 0.666 | 0.32 | 0.204 | 0.179 | 0.189 | 0.678 | 0.632 | 0.242 | 0.184 | 0.218
NCI-H460 | 0.205 | 0.154 | 0.0447 | 0.0185 | 0.0133 | 0.061 | 0.0655 | 0.0657 | 0.0656 | 0.0639 | 0.0637 | 0.0517 | 0.0606 | 0.0204 | 0.0163 | 1.11 | 1.06 | 0.147 | 0.0166 | 0.02
EKVX | 0.313 | 0.343 | 0.379 | 0.155 | 0.151 | 0.358 | 0.447 | 0.435 |  | 0.387 | 0.389 | 0.403 | 0.326 | 0.194 | 0.28 | 0.702 | 0.833 | 0.755 | 0.237 | 1.08
NCI-H358 | 0.146 | 0.126 | 0.11 | 0.0815 | 0.0734 | 0.179 | 0.186 | 0.184 |  | 0.21 | 0.191 | 0.178 | 0.194 | 0.0986 | 0.102 | 0.623 | 0.598 | 0.08 | 0.101 | 0.0984
EPLC-272H | 0.286 | 0.261 | 0.191 | 0.12 | 0.166 | 0.338 | 0.303 | 0.303 | 0.311 | 0.335 | 0.294 | 0.173 | 0.0902 | 0.106 | 0.0725 | 0.715 | 0.0998 | 0.0735 | 0.0644 | 0.0639
NCI-H1395 | 1.06 | 0.635 | 0.611 | 0.353 | 0.369 | 1.02 | 0.842 | 0.972 | 0.856 | 0.881 | 0.73 | 0.643 | 0.34 | 0.323 | 0.402 | 0.911 | 1.1 | 0.691 | 0.339 | 0.327
